Laboratory results: US20230270713A1, “Administration of Resiniferatoxin For Treatment of Bladder Pain or Bladder Cancer” (Sorrento Therapeutics, Inc., priority 2020, published 2023)

Tested on: dogs with bladder transitional cell carcinoma
Assay: Change in lower urinary tract signs in dogs with bladder TCC (Example F)
Format: in vivo, dog
Conditions: for Improvement of at Least 1 Score, dogs n/N / Improvement of at Least 1 Score, percent of dogs / Improvement of at Least 2 Scores, dogs n/N / Improvement of at Least 2 Scores, percent of dogs / Improvement in at least 1 score (lower urinary tract signs), dogs n/N / Improvement in at least 1 score, percent of dogs / Improvement in at least 2 scores (lower urinary tract signs), dogs n/N / Improvement in at least 2 scores, percent of dogs: dogs with bladder TCC; for Improvement in at least 1 score (lower urinary tract signs), dogs n/N / Improvement in at least 1 score, percent of dogs / Improvement in at least 2 scores (lower urinary tract signs), dogs n/N / Improvement in at least 2 scores, percent of dogs: all RTX doses (25-100 μg)
Procedure: Pre-treatment with diphenhydramine HCl intramuscular (2 mg/kg) was administered 30-45 minutes prior to RTX administration. Enrolled dogs were anesthetized and were monitored by auscultation and chest movement observation. Heart rate and oxygenation were monitored using a pulse oximeter throughout the duration of anesthesia. Blood pressure was monitored. Body temperature was maintained using a heated water blanket or equivalent thermal barrier (e.g., Vetko). Lactated Ringers Solution (LRS), or other medically appropriate fluid therapy, were used to maintain adequate hydration (approximately 2 mL/kg/hr intravenous (IV)) and a fluid bolus of LRS (2-5 mL/kg IV) as needed.
RTX was administered as a one-time treatment into the bladder on Day 0 with the option of repeating RTX at a future study day. A Foley urinary catheter was placed using a sterile standard technique. An abdominal ultrasound was concurrently performed to ensure that the tip of the catheter was in the bladder lumen. Urine was removed using a catheter tipped syringe.
RTX was diluted in 0.9% NaCl and then infused into the bladder. The catheter was then flushed with 5-6 mL of 0.9% NaCl to ensure the entire IVP volume was administered. The Foley catheter was capped and remained in place for a period of 30 minutes post-infusion. The bladder was then emptied prior to removal of the Foley catheter. The timing of recovery was managed on an individual basis, but it was recommended to initiate recovery approximately 10 minutes after RTX infusion.
RTX total dose ranged from 25-100 μg (1.17-5.21 μg/kg). RTX was instilled at concentration of 1.0 μg/mL 2.0 μg/mL or 2.5 μg/mL.
Primary effectiveness variables: Evaluations of lower urinary tract signs, as reported by the owner, were used as the primary effectiveness endpoint for the study. The character of urination, frequency of urination (day), frequency of urination (night) and blood in urine (Knapp, 2010) were monitored. Blood in urine was assessed by owner through daily collection of first morning sample and the owner completed the “Owner urine collection log.” Comparisons were made for each parameter between Day 0 and subsequent study visits on Days 7 (±2), 14 (±2), 28 (±2), 56 (±2) and 84 (±2). Treatment success was defined as at least one grade improvement for each parameter.
At each study visit, the investigator graded lower urinary tract signs with input from the owner. Improvement in 1 or 2 grades are summarized by total RTX dose in Table 16 and then comparing those dogs receiving an RTX dose <3 μg/kg and 3 μg/kg in Table 17.

[1] = dogs with bladder TCC evaluable at Days 14-84

SMILES: C=C(C)[C@]12C[C@@H](C)[C@@]34O[C@](Cc5ccccc5)(O[C@@H]1[C@@H]3C=C(COC(=O)Cc1ccc(O)c(OC)c1)C[C@]1(O)C(=O)C(C)=C[C@@H]41)O2 [RTX, resiniferatoxin]
- dogs with improvement in at least 1 urinary symptom grade at each visit [1]: more than 50%
- dogs with improvement in at least 2 grades at each visit [1]: more than 40%
- Improvement of at Least 1 Score, dogs n/N (RTX <3 μg/kg, Day 7): 4/7
- Improvement of at Least 1 Score, percent of dogs (RTX <3 μg/kg, Day 7): (57.1%)
- Improvement of at Least 2 Scores, dogs n/N (RTX <3 μg/kg, Day 7): 2/7
- Improvement of at Least 2 Scores, percent of dogs (RTX <3 μg/kg, Day 7): (28.6%)
- Improvement of at Least 1 Score, dogs n/N (RTX <3 μg/kg, Day 14): 5/7
- Improvement of at Least 1 Score, percent of dogs (RTX <3 μg/kg, Day 14): (71.4%)
- Improvement of at Least 2 Scores, dogs n/N (RTX <3 μg/kg, Day 14): 3/7
- Improvement of at Least 2 Scores, percent of dogs (RTX <3 μg/kg, Day 14): (42.9%)
- Improvement of at Least 1 Score, dogs n/N (RTX <3 μg/kg, Day 28): 4/5
- Improvement of at Least 1 Score, percent of dogs (RTX <3 μg/kg, Day 28): (80.0%)
- Improvement of at Least 2 Scores, dogs n/N (RTX <3 μg/kg, Day 28): 3/5
- Improvement of at Least 2 Scores, percent of dogs (RTX <3 μg/kg, Day 28): (60.0%)
- Improvement of at Least 1 Score, dogs n/N (RTX <3 μg/kg, Day 56): 4/5
- Improvement of at Least 1 Score, percent of dogs (RTX <3 μg/kg, Day 56): (80.0%)
- Improvement of at Least 2 Scores, dogs n/N (RTX <3 μg/kg, Day 56): 3/5
- Improvement of at Least 2 Scores, percent of dogs (RTX <3 μg/kg, Day 56): (60.0%)
- Improvement of at Least 1 Score, dogs n/N (RTX <3 μg/kg, Day 84): 2/2
- Improvement of at Least 1 Score, percent of dogs (RTX <3 μg/kg, Day 84): (100.0%)
- Improvement of at Least 2 Scores, dogs n/N (RTX <3 μg/kg, Day 84): 2/2
- Improvement of at Least 2 Scores, percent of dogs (RTX <3 μg/kg, Day 84): (100.0%)
- Improvement of at Least 1 Score, dogs n/N (RTX >= 3 μg/kg, Day 7): 3/7
- Improvement of at Least 1 Score, percent of dogs (RTX >= 3 μg/kg, Day 7): (42.9%)
- Improvement of at Least 2 Scores, dogs n/N (RTX >= 3 μg/kg, Day 7): 2/7
- Improvement of at Least 2 Scores, percent of dogs (RTX >= 3 μg/kg, Day 7): (28.6%)
- Improvement of at Least 1 Score, dogs n/N (RTX >= 3 μg/kg, Day 14): 5/7
- Improvement of at Least 1 Score, percent of dogs (RTX >= 3 μg/kg, Day 14): (71.4%)
- Improvement of at Least 2 Scores, dogs n/N (RTX >= 3 μg/kg, Day 14): 3/7
- Improvement of at Least 2 Scores, percent of dogs (RTX >= 3 μg/kg, Day 14): (42.9%)
- Improvement of at Least 1 Score, dogs n/N (RTX >= 3 μg/kg, Day 28): 4/6
- Improvement of at Least 1 Score, percent of dogs (RTX >= 3 μg/kg, Day 28): (66.7%)
- Improvement of at Least 2 Scores, dogs n/N (RTX >= 3 μg/kg, Day 28): 2/6
- Improvement of at Least 2 Scores, percent of dogs (RTX >= 3 μg/kg, Day 28): (33.3%)
- Improvement of at Least 1 Score, dogs n/N (RTX >= 3 μg/kg, Day 56): 3/5
- Improvement of at Least 1 Score, percent of dogs (RTX >= 3 μg/kg, Day 56): (60.0%)
- Improvement of at Least 2 Scores, dogs n/N (RTX >= 3 μg/kg, Day 56): 2/5
- Improvement of at Least 2 Scores, percent of dogs (RTX >= 3 μg/kg, Day 56): (40.0%)
- Improvement of at Least 1 Score, dogs n/N (RTX >= 3 μg/kg, Day 84): 2/5
- Improvement of at Least 1 Score, percent of dogs (RTX >= 3 μg/kg, Day 84): 40.0%
- Improvement of at Least 2 Scores, dogs n/N (RTX >= 3 μg/kg, Day 84): 1/5
- Improvement of at Least 2 Scores, percent of dogs (RTX >= 3 μg/kg, Day 84): 20.0%
- Improvement in at least 1 score (lower urinary tract signs), dogs n/N (Day 14): 10/14
- Improvement in at least 1 score, percent of dogs (Day 14): 71.4%
- Improvement in at least 2 scores (lower urinary tract signs), dogs n/N (Day 14): 7/14
- Improvement in at least 2 scores, percent of dogs (Day 14): 50.0%
- Improvement in at least 1 score (lower urinary tract signs), dogs n/N (Day 28): 8/11
- Improvement in at least 1 score, percent of dogs (Day 28): 72.7%
- Improvement in at least 2 scores (lower urinary tract signs), dogs n/N (Day 28): 5/11
- Improvement in at least 2 scores, percent of dogs (Day 28): 45.5%
- Improvement in at least 1 score (lower urinary tract signs), dogs n/N (Day 56): 7/10
- Improvement in at least 1 score, percent of dogs (Day 56): 70.0%
- Improvement in at least 2 scores (lower urinary tract signs), dogs n/N (Day 56): 5/10
- Improvement in at least 2 scores, percent of dogs (Day 56): 50.0%
- Improvement in at least 1 score (lower urinary tract signs), dogs n/N (Day 84): 4/7
- Improvement in at least 1 score, percent of dogs (Day 84): 57.1%
- Improvement in at least 2 scores (lower urinary tract signs), dogs n/N (Day 84): 3/7
- Improvement in at least 2 scores, percent of dogs (Day 84): 42.9%
- dogs showing improved urine scores after a 2nd RTX administration (of the 6 dogs with bladder TCC that received a 2nd RTX administration): 1 dog
